Experimental data: the NIST ThermoML archive (doi:10.1016/j.tca.2010.12.008)
± gives the expanded uncertainty stated by the source.

Conditions: Crystal 2; visual observation

Structure (SMILES): CC(C)(C)P(=O)(O)C(C)(C)C [di-tert-butylphosphinic acid]
- Triple point temperature: 37.8 ± 0.5 K
